Assay results from patent US20230271968A1, “PYRAZOLOPYRIMIDINE COMPOUND USED AS ATR KINASE INHIBITOR” (priority 2020, published 2023).
Where two headings read alike, the source gives them in different places.

Assays:
[1] = test system: TOV21G (ovarian cancer) cells; experiment: Cell proliferation inhibition in vitro, CellTiter-Glo luminescence, TOV21G; type: cell-based, human; conditions: read-out: TOV21G/IC50/μM
Protocol: (§1) By detecting the effect of compounds on cell activity in vitro in tumor cell lines TOV21G (ovarian cancer) and MV4-11 (leukemia), the inhibitory effect of compounds on cell proliferation was studied in this assay.
(§2) TOV21G cells and MV4-11 cells were purchased from American Type Culture Collection (ATCC).
About 1000 cells were inoculated in each well of a 96-well culture plate, and cultured for 24 hours. Different concentrations (0-10 μM) of compounds to be assayed were added to treat the cells. Each group was assayed in triplicate. Blank wells (containing medium only) and control wells (inoculated cells without being treated with drug) were set. Cells were cultured for 120 hours. 40 μL of Cell Titer-Glo solutions (Promega, #G7573) were added to each well, and the cells were incubated with shaking for 20 min in the dark.
(§3) Inhibition rate (%)=100%×(control well−assay well)/(control well−blank well)

ATR kinase = ATR kinase (Homo sapiens (Human), UniProt Q13535); experiment: Assay of ATR kinase activity (time-resolved fluorescence, phosphorylation of p53-derived protein); type: biochemical; conditions: ATR/ATRIP, p53 substrate, 30 minutes at room temperature
ATR kinase, sequence (Q13535 whole entry, looked up): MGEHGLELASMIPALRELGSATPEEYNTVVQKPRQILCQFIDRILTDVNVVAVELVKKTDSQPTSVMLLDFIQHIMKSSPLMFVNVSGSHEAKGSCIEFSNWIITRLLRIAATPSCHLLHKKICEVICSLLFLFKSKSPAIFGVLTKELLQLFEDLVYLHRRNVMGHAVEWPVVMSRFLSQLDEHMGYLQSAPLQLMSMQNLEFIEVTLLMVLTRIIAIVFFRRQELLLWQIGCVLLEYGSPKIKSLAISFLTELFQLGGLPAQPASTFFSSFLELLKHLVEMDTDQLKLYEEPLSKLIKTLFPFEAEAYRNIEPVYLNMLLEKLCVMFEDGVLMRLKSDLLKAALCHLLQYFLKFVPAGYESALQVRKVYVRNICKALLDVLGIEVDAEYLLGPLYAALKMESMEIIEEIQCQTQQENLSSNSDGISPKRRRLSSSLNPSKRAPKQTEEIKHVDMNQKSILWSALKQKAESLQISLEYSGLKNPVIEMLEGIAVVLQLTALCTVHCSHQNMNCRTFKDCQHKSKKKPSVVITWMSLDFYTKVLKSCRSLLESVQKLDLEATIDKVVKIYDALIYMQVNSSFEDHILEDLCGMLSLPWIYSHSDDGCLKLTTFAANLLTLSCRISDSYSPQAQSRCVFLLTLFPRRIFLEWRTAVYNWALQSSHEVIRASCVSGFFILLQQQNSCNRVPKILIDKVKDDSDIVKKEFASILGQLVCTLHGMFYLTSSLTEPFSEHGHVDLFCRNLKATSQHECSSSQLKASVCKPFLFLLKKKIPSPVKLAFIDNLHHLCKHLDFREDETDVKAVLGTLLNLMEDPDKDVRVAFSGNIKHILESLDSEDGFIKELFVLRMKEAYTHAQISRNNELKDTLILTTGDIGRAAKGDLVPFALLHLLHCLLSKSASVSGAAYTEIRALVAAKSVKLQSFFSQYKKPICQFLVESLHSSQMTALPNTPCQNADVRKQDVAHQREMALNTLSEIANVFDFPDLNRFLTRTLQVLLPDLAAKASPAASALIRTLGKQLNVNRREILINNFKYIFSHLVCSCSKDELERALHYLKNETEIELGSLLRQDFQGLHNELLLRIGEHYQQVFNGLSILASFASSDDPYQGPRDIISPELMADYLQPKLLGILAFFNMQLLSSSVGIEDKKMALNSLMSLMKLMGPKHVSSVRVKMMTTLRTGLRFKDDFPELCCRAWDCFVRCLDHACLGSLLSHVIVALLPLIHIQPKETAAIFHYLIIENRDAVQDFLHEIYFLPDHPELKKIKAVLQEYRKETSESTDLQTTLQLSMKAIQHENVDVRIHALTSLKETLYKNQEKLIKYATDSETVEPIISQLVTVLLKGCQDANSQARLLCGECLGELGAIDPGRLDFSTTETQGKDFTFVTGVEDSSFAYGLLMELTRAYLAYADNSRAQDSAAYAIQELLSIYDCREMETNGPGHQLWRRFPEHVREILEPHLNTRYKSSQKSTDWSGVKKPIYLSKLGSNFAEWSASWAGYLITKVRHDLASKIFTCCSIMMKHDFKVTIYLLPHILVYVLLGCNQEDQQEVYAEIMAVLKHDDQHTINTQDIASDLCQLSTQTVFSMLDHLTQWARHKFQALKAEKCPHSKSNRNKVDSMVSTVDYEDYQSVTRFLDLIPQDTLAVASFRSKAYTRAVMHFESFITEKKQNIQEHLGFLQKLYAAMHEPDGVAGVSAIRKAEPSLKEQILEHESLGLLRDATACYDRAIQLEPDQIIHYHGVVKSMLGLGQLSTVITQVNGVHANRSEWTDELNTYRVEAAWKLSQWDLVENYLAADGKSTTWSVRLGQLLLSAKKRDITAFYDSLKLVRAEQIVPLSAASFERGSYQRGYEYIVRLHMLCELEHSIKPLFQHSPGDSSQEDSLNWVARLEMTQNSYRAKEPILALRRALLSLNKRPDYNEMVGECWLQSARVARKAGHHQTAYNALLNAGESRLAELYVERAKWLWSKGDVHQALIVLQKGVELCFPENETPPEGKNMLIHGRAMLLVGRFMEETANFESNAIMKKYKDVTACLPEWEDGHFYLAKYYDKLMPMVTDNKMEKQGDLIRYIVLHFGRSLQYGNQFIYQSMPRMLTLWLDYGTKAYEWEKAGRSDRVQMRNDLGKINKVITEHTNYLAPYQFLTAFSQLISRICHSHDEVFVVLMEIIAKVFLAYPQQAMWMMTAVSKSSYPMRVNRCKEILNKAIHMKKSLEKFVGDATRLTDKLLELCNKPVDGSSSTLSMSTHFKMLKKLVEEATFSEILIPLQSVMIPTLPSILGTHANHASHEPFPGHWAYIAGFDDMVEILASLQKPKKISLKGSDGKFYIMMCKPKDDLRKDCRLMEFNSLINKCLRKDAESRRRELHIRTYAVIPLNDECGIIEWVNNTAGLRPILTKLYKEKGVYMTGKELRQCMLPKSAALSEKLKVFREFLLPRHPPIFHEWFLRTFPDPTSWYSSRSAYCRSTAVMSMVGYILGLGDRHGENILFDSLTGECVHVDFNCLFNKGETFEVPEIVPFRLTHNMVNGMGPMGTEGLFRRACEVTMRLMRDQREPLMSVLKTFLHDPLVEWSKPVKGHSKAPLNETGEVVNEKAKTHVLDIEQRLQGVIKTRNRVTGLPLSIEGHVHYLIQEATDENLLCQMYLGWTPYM
ATR kinase, sequence (Q8WXE1 whole entry partner, looked up): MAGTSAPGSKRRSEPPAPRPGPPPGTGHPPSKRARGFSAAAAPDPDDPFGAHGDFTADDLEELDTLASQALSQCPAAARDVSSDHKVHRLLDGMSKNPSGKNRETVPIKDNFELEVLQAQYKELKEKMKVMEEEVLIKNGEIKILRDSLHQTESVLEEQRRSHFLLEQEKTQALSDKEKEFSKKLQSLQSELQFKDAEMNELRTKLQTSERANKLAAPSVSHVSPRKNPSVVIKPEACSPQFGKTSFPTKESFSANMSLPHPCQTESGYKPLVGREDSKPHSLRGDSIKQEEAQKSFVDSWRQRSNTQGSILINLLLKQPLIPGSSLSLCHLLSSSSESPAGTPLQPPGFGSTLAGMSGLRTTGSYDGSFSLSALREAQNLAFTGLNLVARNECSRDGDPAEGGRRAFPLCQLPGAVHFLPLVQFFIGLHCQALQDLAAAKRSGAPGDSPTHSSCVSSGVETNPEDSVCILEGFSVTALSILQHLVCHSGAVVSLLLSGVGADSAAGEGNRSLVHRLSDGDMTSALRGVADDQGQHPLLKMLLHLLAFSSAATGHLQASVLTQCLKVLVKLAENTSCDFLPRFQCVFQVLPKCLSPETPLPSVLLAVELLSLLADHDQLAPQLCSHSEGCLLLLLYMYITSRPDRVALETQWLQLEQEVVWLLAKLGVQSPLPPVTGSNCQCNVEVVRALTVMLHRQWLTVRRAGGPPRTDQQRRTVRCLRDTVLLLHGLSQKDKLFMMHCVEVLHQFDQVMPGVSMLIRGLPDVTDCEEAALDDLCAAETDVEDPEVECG
Protocol: The amount of phosphorylated protein was determined by time-resolved fluorescence in this assay. The amount of phosphorylated protein was detected by anti-p53-phospho-(serine 15)-K-specific antibody (Cisbio, art. No.: 61GSTDLA) and d2 labeled anti-GST antibody (Cisbio, art. No. 61P08KAE). […] The reagents used above were purchased from Sigma or Invitrogen, except for those whose manufacturers were mentioned.
Operations were as Follows
4×p53 substrate working solution (40 nM) was prepared with 1×reaction buffer, and 2.5 μL of the 4×p53 substrate working solution was added to a 384-well analysis plate. […] 4×ATP working solution (2 mM) was prepared with deionized water, and 2.5 μL of the 4×ATP working solution was added to a 384-well analysis plate. The plates were incubated at room temperature in dark for 30 minutes. […] Finally, 5 μL of assay mixture (0.084 ng/μL Anti-phospho-p53 (ser15)-K and 5 ng/μL Anti-GST-d2) was added to the 384 well analysis plates, and incubated at room temperature overnight. The fluorescence signal was detected with ENVISION (Perkinelmer) instrument (excitation wavelength: 320 nm, emission wavelength: 665 nm and 615 nm). […] IC50 values of compounds were calculated by standard software for parameter fitting (GraphPad Prism 6.0).

MV4-11 (leukemia) cells = experiment: Cell proliferation inhibition in vitro, CellTiter-Glo luminescence, MV4-11; type: cell-based, human; conditions: MV4-11 cells, 120 hours
Protocol: as §1, §2
MV-4-11 cells were cultured in IMDM medium (containing 20% of FBS). About 10,000 cells were inoculated in each well of a 96-well culture plate, and treated by adding different concentrations (0-10 μM) of compounds to be assayed. Each group was assayed in triplicate. Blank wells (containing medium only) and control wells (inoculated cells without being treated with drug) were set. Cells were cultured for 120 hours. 40 μL of Cell Titer-Glo solutions were added to each well, and the cells were incubated with shaking for 20 min in the dark. 100 μL of solution was transferred from each well to a 96-well blank plate, and the luminescence value was read by Biotek Synergy H1 multifunctional microplate reader.
as §3

mTOR = mTOR (Homo sapiens (Human), UniProt P42345); experiment: Kinase selectivity: inhibitory activity against mTOR; type: biochemical; conditions: 3-fold serial dilution from 10 μM to 0.51 nM, 10 concentrations
Protocol: (§4) The compounds of the present disclosure were assayed for inhibition of the same family (ATM, DNA-PK, PI3K, mTOR): […]

[2] = In vivo pharmacokinetics in male ICR mice, oral gavage; conditions: mouse, 10 mg/kg, plasma
Protocol: In vivo pharmacokinetic studies were performed on the compounds of the present disclosure.
Male ICR mice (3 mice/group) were administered orally by gavage at a dose of 10 mg/kg. The plasma samples were collected before administration (0 h) and after administration (0.25, 0.5, 1, 2, 4, 6, 8, 24 h). The collected samples were subjected to LC/MS/analysis, and the data were collected. The relevant pharmacokinetic parameters were calculated by Analyst v1.6.2 (AB Applied Biosystems Company, USA) software using the collected analytical data.

ATM = ATM (Homo sapiens (Human), UniProt Q13315); experiment: Kinase selectivity: inhibitory activity against ATM; type: biochemical; conditions: 3-fold serial dilution from 10 μM to 0.51 nM, 10 concentrations
Protocol: as §4

PI3Kδ = PI3Kδ (Homo sapiens (Human), UniProt O00329); experiment: Kinase selectivity: inhibitory activity against PI3Kδ; type: biochemical; conditions: 3-fold serial dilution from 10 μM to 0.51 nM, 10 concentrations
Protocol: as §4

[3] = In vitro stability assay in human liver microsome; type: in vitro ADME; conditions: human liver microsomes, compound 2.0 nM, with or without NADPH, within 60 minutes of incubation; read-out: Human liver microsome t1/2
Protocol: (§5) The compounds of the present disclosure were subjected to stability assay in liver microsome. The compound to be assayed (with a final concentration of 2.0 nM) was co-incubated with human/mouse liver microsomes with or without the addition of NADPH. The concentration of the compound in the supernatant was determined within 60 minutes of incubation.

DNA-PK = DNA-PK (Homo sapiens (Human), UniProt P78527); experiment: Kinase selectivity: inhibitory activity against DNA-PK; type: biochemical; conditions: 3-fold serial dilution from 10 μM to 0.51 nM, 10 concentrations; read-out: IC50/DNAPK
Protocol: as §4

PI3Kα = PI3Kα (Homo sapiens (Human), UniProt P42336); experiment: Kinase selectivity: inhibitory activity against PI3Kα; type: biochemical; conditions: 3-fold serial dilution from 10 μM to 0.51 nM, 10 concentrations
Protocol: as §4

[4] = In vitro stability assay in mouse liver microsome; type: in vitro ADME; conditions: mouse liver microsomes, compound 2.0 nM, with or without NADPH, within 60 minutes of incubation; read-out: Mouse liver microsome t1/2
Protocol: as §5

[5] = Homo sapiens, TOV21G cells, 120 hours, CellTiter-Glo
[6] = TOV21G cells, 120 hours, CellTiter-Glo

SMILES: Cc1nn(C2CCNCC2)c(C(F)(F)F)c1-c1cc(N2CCOC[C@H]2C)nc2c(-c3ccn[nH]3)cnn12 [Compound A1]
- IC50 [1, 5]: 0.66 µM
- IC50 (ATR kinase): 70 nM
- IC50 (MV4-11 (leukemia) cells; Homo sapiens): 0.66 µM

SMILES: Cc1c(-c2cc(N3CCOC[C@H]3C)nc3c(-c4ccn[nH]4)cnn23)c(C(F)(F)F)nn1C1CCNCC1 [Compound A2]
- IC50 [1, 5]: 0.83 µM
- IC50 (ATR kinase): 33 nM
- IC50 (MV4-11 (leukemia) cells; Homo sapiens): 0.78 µM

SMILES: Cc1nn(C2CCNCC2)c(C)c1-c1cc(N2CCOC[C@H]2C)nc2c(-c3ccn[nH]3)cnn12 [Compound A3]
- IC50 (ATR kinase): 184 nM

SMILES: Cc1noc(C)c1-c1cc(N2CCOC[C@H]2C)nc2c(-c3ccn[nH]3)cnn12 [Compound A4]
- IC50 [1, 5]: 1.05 µM
- IC50 (ATR kinase): 74 nM
- IC50 (MV4-11 (leukemia) cells; Homo sapiens): 0.75 µM

SMILES: Cc1nn(C2CCNCC2)c(C(F)(F)F)c1-c1cc(N2CCOC[C@H]2C)nc2c(-c3ccccn3)cnn12 [Compound A6]
- IC50 (ATR kinase): 17 nM

SMILES: Cc1nn(C2CCNCC2)c(C(F)(F)F)c1-c1cc(N2CCOC[C@H]2C)nc2c(-c3cccs3)cnn12 [Compound A7]
- IC50 (ATR kinase): 12 nM

SMILES: Cc1nnn(C)c1-c1cc(N2CCOC[C@H]2C)nc2c(-c3ccn[nH]3)cnn12 [Compound A8]
- IC50 [1, 6]: 0.78 µM
- IC50 (ATR kinase): 84 nM
- IC50 (MV4-11 (leukemia) cells): 0.68 µM

SMILES: Cc1nn(-c2cncc(F)c2)c(C)c1-c1cc(N2CCOC[C@H]2C)nc2c(-c3ccn[nH]3)cnn12 [Compound A9]
- IC50 ([1]; Homo sapiens, TOV21G, 120 h): 0.28 µM
- IC50 (mTOR): 1.83 µM
- IC50 (ATR kinase): 2 nM
- AUC [2]: 6950 ng·h/mL
- Cmax [2]: 1810 ng/mL
- Tmax [2]: 0.25 h
- half-life [2]: 3.3 h
- IC50 (ATM): 6.37 µM
- IC50 (PI3Kδ): 1.13 µM
- IC50 (MV4-11 (leukemia) cells; Homo sapiens): 0.25 µM
- half-life at 2 nM [3]: 1.43 h
- IC50 (DNA-PK): 0.303 µM
- IC50 (PI3Kα): 4.06 µM
- half-life at 2 nM [4]: 3.63 h

SMILES: Cc1nn(-c2cncc(C(F)F)c2)c(C)c1-c1cc(N2CCOC[C@H]2C)nc2c(-c3ccn[nH]3)cnn12 [Compound A10]
- IC50 ([1]; Homo sapiens, TOV21G, 120 h): 0.3 µM
- IC50 (ATR kinase): 3 nM
- AUC [2]: 14300 ng·h/mL
- Cmax [2]: 4890 ng/mL
- Tmax [2]: 0.25 h
- half-life [2]: 1.76 h
- IC50 (ATM): 4.12 µM
- IC50 (MV4-11 (leukemia) cells; Homo sapiens): 0.27 µM
- half-life at 2 nM [3]: 0.6 h
- IC50 (DNA-PK): 1.26 µM
- half-life at 2 nM [4]: 2.7 h

SMILES: Cc1nn(-c2cncc(C#N)c2)c(C)c1-c1cc(N2CCOC[C@H]2C)nc2c(-c3ccn[nH]3)cnn12 [Compound A11]
- IC50 [1, 5]: 0.38 µM
- IC50 (MV4-11 (leukemia) cells; Homo sapiens): 0.5 µM

SMILES: Cc1nn(-c2cncc(Cl)c2)c(C)c1-c1cc(N2CCOC[C@H]2C)nc2c(-c3ccn[nH]3)cnn12 [Compound A12]
- IC50 [1, 5]: 0.33 µM
- IC50 (ATR kinase): 2 nM
- AUC [2]: 8330 ng·h/mL
- Cmax [2]: 2270 ng/mL
- Tmax [2]: 0.33 h
- half-life [2]: 1.98 h
- IC50 (MV4-11 (leukemia) cells; Homo sapiens): 0.26 µM

SMILES: Cc1nn(-c2ccnnc2)c(C)c1-c1cc(N2CCOC[C@H]2C)nc2c(-c3ccn[nH]3)cnn12 [Compound A13]
- IC50 [1, 5]: 0.21 µM
- IC50 (ATR kinase): 2 nM
- IC50 (MV4-11 (leukemia) cells; Homo sapiens): 0.28 µM

SMILES: Cc1nn(-c2ccc(=O)[nH]c2)c(C)c1-c1cc(N2CCOC[C@H]2C)nc2c(-c3ccn[nH]3)cnn12 [Compound A14]
- IC50 (ATR kinase): 3 nM

SMILES: Cc1nn(C(=O)N2CCNCC2)c(C)c1-c1cc(N2CCOC[C@H]2C)nc2c(-c3ccn[nH]3)cnn12 [Compound A15]
- IC50 [1, 6]: 0.27 µM
- IC50 (ATR kinase): 13 nM
- IC50 (MV4-11 (leukemia) cells): 0.45 µM

SMILES: Cc1nn(C2CCNC[C@H]2F)c(C)c1-c1cc(N2CCOC[C@H]2C)nc2c(-c3ccn[nH]3)cnn12 (some centres unmarked) [Compound A16-II]
- IC50 [1, 6]: 0.52 µM
- IC50 (ATR kinase): 31 nM
- IC50 (MV4-11 (leukemia) cells): 0.57 µM

SMILES: Cc1nn(C2CCNC[C@@H]2F)c(C)c1-c1cc(N2CCOC[C@H]2C)nc2c(-c3ccn[nH]3)cnn12 (some centres unmarked) [Compound A16-I]
- IC50 [1, 6]: 1.4 µM
- IC50 (ATR kinase): 33 nM
- IC50 (MV4-11 (leukemia) cells): 0.89 µM

SMILES: Cc1nn(-c2cncc(C(N)=O)c2)c(C)c1-c1cc(N2CCOC[C@H]2C)nc2c(-c3ccn[nH]3)cnn12 [Compound A17]
- IC50 [1, 6]: 1.29 µM
- IC50 (ATR kinase): 3 nM
- IC50 (MV4-11 (leukemia) cells): 0.85 µM

SMILES: Cc1nn(CCO)c(C)c1-c1cc(N2CCOC[C@H]2C)nc2c(-c3ccn[nH]3)cnn12 [Compound A18]
- IC50 [1, 6]: 0.56 µM
- IC50 (ATR kinase): 8 nM
- IC50 (MV4-11 (leukemia) cells): 0.74 µM

SMILES: Cc1nn(-c2cncc(O)c2)c(C)c1-c1cc(N2CCOC[C@H]2C)nc2c(-c3ccn[nH]3)cnn12 [Compound A19]
- IC50 [1, 6]: 0.66 µM
- IC50 (ATR kinase): 4 nM
- IC50 (MV4-11 (leukemia) cells): 0.6 µM

SMILES: C[C@@H]1COCCN1c1cc(C2(O)CCOCC2)n2ncc(-c3ccn[nH]3)c2n1 [Compound A20]
- IC50 [1, 6]: 0.73 µM
- IC50 (ATR kinase): 188 nM
- IC50 (MV4-11 (leukemia) cells): 0.92 µM

SMILES: C[C@@H]1COCCN1c1cc(-c2cccnc2C(F)(F)F)n2ncc(-c3ccn[nH]3)c2n1 [Compound A21]
- IC50 [1, 5]: 0.63 µM
- IC50 (ATR kinase): 52 nM
- IC50 (MV4-11 (leukemia) cells; Homo sapiens): 0.74 µM

SMILES: Cc1nn(-c2cccnc2)c(C)c1-c1cc(N2CCOC[C@H]2C)nc2c(-c3ccn[nH]3)cnn12 [Compound A22]
- IC50 [1, 5]: 0.19 µM
- IC50 (ATR kinase): 2 nM
- IC50 (MV4-11 (leukemia) cells; Homo sapiens): 0.23 µM

SMILES: Cc1cncc(-n2nc(C)c(-c3cc(N4CCOC[C@H]4C)nc4c(-c5ccn[nH]5)cnn34)c2C)c1 [Compound A23]
- IC50 [1, 5]: 0.26 µM
- IC50 (ATR kinase): 4 nM
- IC50 (MV4-11 (leukemia) cells; Homo sapiens): 0.3 µM

SMILES: Cc1nn(-c2ccncc2)c(C)c1-c1cc(N2CCOC[C@H]2C)nc2c(-c3ccn[nH]3)cnn12 [Compound A24]
- IC50 [1, 5]: 0.15 µM
- IC50 (ATR kinase): 2 nM
- IC50 (MV4-11 (leukemia) cells; Homo sapiens): 0.23 µM
